Measured values reported in patent US20190038784A1, “TAU PET IMAGING LIGANDS” (Janssen Pharmaceutica NV, priority 2016, published 2019).

Columns and labels:
[1] = tested on: extracted human tau (aggregated tau, PHF); assay: Competitive radioligand binding assay with [3H]-T808 on aggregated tau preps from human AD brain; conditions: Aβ Ki versus Tau Ki
Experimental: (§1) Enriched aggregated tau fractions were prepared according to a slightly modified version of the protocol described by Greenberg and Davies (Greenberg S G, Davies P. A preparation of Alzheimer paired helical filaments that display distinct tau proteins by polyacrylamide gel electrophoresis. Proc. Natl. Acad. Sci. 1990; 87: 5827-5831) using human AD brain tissue (occipital cortex with high tau fibril load). Briefly, frozen human AD brain samples (˜10 g) were homogenized with 10 vol of cold homogenization buffer (10 mM Tris, 800 mM NaCl, 1 mM EGTA, 10% sucrose, pH 7.4 containing PhosSTOP phosphatase and cOmplete EDTA-free protease inhibitor (Roche, Vilvoorde, Belgium)) on ice. After centrifugation at 27 000×g for 20 min at 4° C. the supernatant was recovered and 1% (w/v) N-lauroylsarcosine and 1% (v/v) 2-mercaptoethanol were added. The N-lauroylsarcosine/2-mercaptoethanol supernatant was incubated for 2 h at 37° C. while shaking on an orbital shaker. Subsequently, ultracentrifugation at 108 000×g for 1.5 h at room temperature enriched aggregated tau in the pellet. Supematant was removed and the pellet was carefully rinsed twice with a small amount of TBS (50 mM Tris, 150 mM NaCl, pH 7.4). Finally, the aggregated tau pellet was recovered in TBS and resuspended to ensure sample homogeneity. Small aliquots were stored at −80° C.
(§2) The competitive radioligand binding assays measure the binding of a radiolabeled reference ligand in the presence of a dose response concentration range of test compounds.
(§3) Briefly, aggregated tau preps were diluted to 100 μg protein/ml in PBS buffer with 5% ethanol. In a 96-well format, ^3H-T808 (specific activity; 32.97 Ci/mmol) was added at a final concentration of 10 nM to increasing amounts of test compound in the presence of 20 μg protein of aggregated tau prep. Nonspecific binding was defined as the number of counts remaining in the presence of 50 μM Thioflavin T (common beta sheet binder). After 2 h incubation at room temperature, the unbound ligand is removed by filtration of the binding mixtures over GF/B glass filters using a Filtermate 96 harvester instrument (Perkin Elmer, Zaventem, Belgium). The filters were washed three times with PBS buffer containing 20% ethanol. After overnight drying of the filter plate, Microscint O liquid (Perkin Elmer) was added and the amount of radiolabeled ligand bound to the fibrils is measured by liquid scintillation counting in a Topcount instrument (Packard Instrument Company, Connecticut, USA)
(§4) Values for half-maximal inhibitory concentration (IC50) were determined from displacement curves of at least two independent experiments using GraphPad Prism software (GraphPad Software, San Diego, Calif.).

[2] = molecular target: T1, extracted human tau (aggregated tau, PHF) (Homo sapiens, UniProt P10636); assay: as above; conditions: for Ki: mean of at least two measurements with SD, calculated from IC50, KD PHF 6.275 nM, 10 nM RL; for IC50: radiolabel displacement of [3H]-T808, 10 nM, read-out: pIC50, binding to extracted human tau (converted)
T1 construct: Tau Ki; other: mean of at least two measurements with SD; other: radiolabel displacement of [3H]-T808, 10 nM
T1 sequence (P10636 623-695 limits assumed): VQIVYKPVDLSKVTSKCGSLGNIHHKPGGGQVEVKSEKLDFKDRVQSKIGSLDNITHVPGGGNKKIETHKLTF
Experimental: as §1, §2, §3, §4

[3] = molecular target: T2, extracted human amyloid-beta aggregates (Homo sapiens, UniProt P05067); assay: Competitive radioligand binding assay with [3H]-AV-45 on amyloid plaque preps from human AD brain; conditions: for Ki: calculated from IC50, KD Aβ 7.85 nM for 3H-AV45, 10 nM RL; for binding to extracted human amyloid-beta aggregates: up to 10 μM, radiolabel displacement of [3H]-AV-45
T2 construct: from tissue; host or cells: human AD brain, occipital cortex
T2 sequence (P05067 672-713 limits assumed): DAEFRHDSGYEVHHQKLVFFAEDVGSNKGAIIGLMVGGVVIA
Experimental: Enriched aggregated β-amyloid preps were prepared from frozen human AD brain samples (10 g—occipital cortex with high amyloid plaques load) that were homogenized with 7-fold vol of cold homogenization buffer (250 mM sucrose, 20 mM Tris base, 1 mM EDTA, 1 mM EGTA and PhosSTOP phosphatase and cOmplete EDTA-free protease inhibitor) on ice. After centrifugation at 27 000×g for 20 min at 4° C. cell debris was removed. Supematant containing amyloid plaques was aliquoted and stored at −80° C.
as §2, §4
To determine compound binding to aggregated β-amyloid a similar assay was put in place but with some minor modifications. Briefly, amyloid preps were diluted to 150 μg protein/ml in 50 mM Tris with 0.1% BSA and 5% ethanol. ^3H-AV-45 (florbetapir-specific activity; 45.95 Ci/mmol) was added at a final concentration of 10 nM to increasing amounts of test compound in the presence of 30 μg protein of amyloid plaques prep. Nonspecific binding was determined in the presence of 500 μM Thioflavin T. After 150 min incubation at room temperature, the binding mixtures were filtered over GF/B glass filters. The filters were washed three times with PBS buffer containing 20% ethanol. Subsequent steps were identical to those described for the aggregated tau preps.

[4] = tested on: neurofibrillary tangles (NFTs) in AD brain slices; assay: Autoradiography blocking study of [18F]Co. No. 1 on human AD brain slices; format: binding; conditions: 1 μM cold blocker, Braak stage V-VI slices
Experimental: Air-dried frozen, 20-μm-thick slices of an AD-patient (Braak stage V-VI) were incubated for 60 min with [^18F]Co. No. 1 (7.4 kBq/500 JpL per section) and subsequently washed with mixtures of phosphate buffered saline (PBS) and ethanol as described elsewhere (Xia C F, Arteaga J, Chen G, et al. [(18)F]T807, a novel tau positron emission tomography imaging agent for Alzheimer's disease. Alzheimers Dement. 2013, 1-11, doi: 10.1016/i.ialz.2012.11.008). To assess specificity of binding, slices were incubated with tracer in the presence of 1 μM of authentic T808 or […].
No. 1. After drying, slices were exposed to a phosphor storage screen (super-resolution screen, Perkin Elmer). Screens were read in a Cyclone Plus system (Perkin Elmer, Waltham, Mass., U.S.A.) and analyzed using Optiquant software. Results are expressed as digital light units per square mm (DLU/mm^2). Adjacent AD slices were immunostained with anti-tau (AT8) and anti-Aβ antibodies (AG8), to correlate with [^18F]Co. No. 1 binding. […] The binding pattern corresponds well with the Tau pathology as detected with AT8 IHC on adjacent slides (see FIG. 1). To assess the specificity of the tracer binding to neurofibrillary tangles (NFTs), blocking studies with authentic Co. No. 1 and T808 were performed. […] Blocking percentages were calculated as (DLU/mm^2 in the presence of […] blocker)/(DLU/mm^2 tracer only).

[5] = MicroPET imaging, rhesus monkey (experiment 1); format: in vivo, rhesus monkey (macaca mulatta); conditions: baseline scan
Experimental: A dynamic 120-min microPET scan with [^18F]Co. No. 1 or [^18F]T807 was performed on a Focus™ 220 microPET scanner (Concorde Microsystems, Knoxville, Tenn., USA) on, respectively, a female rhesus monkey (9 year-old macaca mulatta, 5.3 kg) and a male rhesus monkey (6 year-old macaca mulatta, 7.6 kg), that was sedated with ketamine (Ketalar®) and xylazine (Rompun®) via intramuscular (IM) injection. During scanning the monkey received repeatedly an additional dose of ketamine/xylazine via IV injection. The O2 saturation in the blood, the breathing frequency and heartrate were monitored during the entire experiment. The head of the animal was placed central, in the field of view, of the microPET scanner. Scans were acquired in list mode and acquisition data were Fourier rebinned in 24 time frames (4×15 s, 4×60 s, 5×180 s, 8×300 s, 3×600 s). Data were reconstructed using a 3D maximum a posteriori (3D-MAP) iterative reconstruction. TACs of the whole brain, corpus callosum, cerebellum and entorhinal cortex were generated using VOIs with PMOD software. Radioactivity concentration in the brain is expressed as SUV as a function of time after tracer injection (FIGS. 5a and 5b). Scans were started immediately after IV injection of 185 MBq of [^18F]Co. No. 1 of [^18F]T807 via the vena saphena of the right leg. […]

[6] = MicroPET imaging, rhesus monkey (experiment 2); format: in vivo, rhesus monkey (Macaca mulatta); conditions: baseline scan
Experimental: A dynamic 120-min μPET scan with [^18F]Co. No. 1 or [^18F]T807 was performed with a Focus 220 μPET scanner on a male rhesus monkey (6 y-old Macaca mulatta, 7.6 kg), that was sedated with ketamine (Ketalar®) and xylazine (Rompun®) via intramuscular (IM) injection. During scanning the monkey received repeatedly an additional dose of ketamine/xylazine via i.v. injection. O2 saturation in blood, breathing frequency and heartbeat frequency were monitored during the entire experiment. The head of the animal was placed central in the field of view of the μPET scanner. Scans were acquired in list mode and Fourier rebinned in 24 time frames (4×15 s, 4×60 s, 5×180 s, 8×300 s, 3×600 s). Data were reconstructed using a 3D maximum a posteriori (3D-MAP) iterative reconstruction. TACs of the whole brain were generated using VOIs with PMOD software. Radioactivity concentration in the brain is expressed as SUV as a function of time after tracer injection. Scans were started immediately after i.v. injection of 185 MBq of [^18F]Co. No. 1 or [^18F]T807 via the vena saphena of the right leg. Results of the 120-min baseline scan of [^18F]Co. No. 1 and [^18F]T807 are shown in FIGS. 7a and 7b, respectively. […] TACs of the baseline scan of [^18F]T807 in the brain show a slower initial brain uptake (SUV value of ˜1.3, time to peak uptake: 15 min) and wash-out (FIG. 8). […]

[7] = MicroPET imaging, Wistar rats; format: in vivo; conditions: baseline scan, whole brain, IV 50 MBq
Experimental: Dynamic 120 min microPET scans were performed on a Focus™ 220 microPET scanner (Concorde Microsystems, Konxville, Tenn., USA) on three female Wistar rats simultaneously, which were kept under gas anesthesia during the whole procedure (2.5% isoflurane in 02 at 1 L/min flow rate). The head of the animals was placed central, in the field of view, of the microPET scanner. Scans were acquired in list mode and acquisition data were Fourier rebinned in 24 time frames (4×15 s, 4×60 s, 5×180 s, 8×300 s, 3×600 s). Data, which were 3D maximum a posteriori (3D-MAP) reconstructed, were manually aligned with a rat brain [^18F]FDG template in Paxinos coordinates using an affine transformation, to allow predefined volumes of interest (VOIs) analysis. Time-activity curves (TACs) of the whole brain were generated using VOIs with PMOD software (v 3.2, PMOD Technologies Ltd., Zdtrich, Switzerland). Radioactivity concentration in the brain was expressed as standardized uptake value (SUV, calculated as (radioactivity in Bq in brain/mL)/(total injected dose (Bq)/body weight in g)) as a function of time after tracer injection. Scans were started immediately after IV injection of 50 MBq [^18F]Co. No. 1 or [^18F]T807 (n=3/tracer). […]

Compound	Selectivity (ratio) [1]	Ki [2]	IC50 [2]	Ki [3]	binding to extracted human amyloid-beta aggregates [3]	inhibition of [18F]Co. No. 1 binding to AD brain slices [4]	wash-out from brain [5]	initial brain uptake, SUV value ([5]; brain, IV 185 MBq)	time to peak uptake ([6]; brain)	initial brain uptake, SUV value ([6]; i.v. 185 MBq, male monkey)	initial brain uptake, SUV value in the brain [7]
Cc1cnccc1Nc1ccc2nc(F)ccc2n1 [Co. No. 2]	>325	13.5 ± 2.2 nM	31.6 nM	> 4400 nM	no measurable binding						
Fc1ccc2nc(Nc3ccncc3)ccc2n1 [Co. No. 3]	>380	11.3 ± 2.8 nM	25.1 nM	> 4400 nM	no measurable binding						
Cc1cc(Nc2ccc3nc(F)ccc3n2)ccn1 [Co. No. 1]	>540	7.9 ± 2.5 nM	20 nM	> 4400 nM	no measurable binding	99%					

Results, then the molecule that gave them:

Selectivity (ratio) [1]	Ki [2]	IC50 [2]	Ki [3]	binding to extracted human amyloid-beta aggregates [3]	inhibition of [18F]Co. No. 1 binding to AD brain slices [4]	wash-out from brain [5]	initial brain uptake, SUV value ([5]; brain, IV 185 MBq)	time to peak uptake ([6]; brain)	initial brain uptake, SUV value ([6]; i.v. 185 MBq, male monkey)	initial brain uptake, SUV value in the brain [7]	Compound
					98%						FCCC1CCN(c2ccn3c(n2)nc2ccccc23)CC1 [T808, 2-[4-(2-fluoroethyl)-1-piperidinyl]-pyrimido[1,2-a]benzimidazole, reference compound]
						slower wash-out	~1.3	15 min	~1.3	~1.6	Fc1ccc(-c2ccc3c(c2)[nH]c2ccncc23)cn1 [[^18F]T807, 7-(6-fluoropyridin-3-yl)-5H-pyrido[4,3-b]indole]
